Source: PubChem BioAssay AID1869 (NMMLSC, 2009)
The source made the active and inactive calls. How the calls were made is not given here.

Target: Regulator of G-protein signaling 8 (Homo sapiens) (UniProt P57771)
Test: compounds altering Galphao binding to RGS8 – biochemical, multiplex bead flow cytometry, dose response (AID 1869)
Conditions: bead-based flow cytometry RGS8-Galphao binding

Chain of Regulator of G-protein signaling 8 (Homo sapiens) (P57771 whole entry, looked up): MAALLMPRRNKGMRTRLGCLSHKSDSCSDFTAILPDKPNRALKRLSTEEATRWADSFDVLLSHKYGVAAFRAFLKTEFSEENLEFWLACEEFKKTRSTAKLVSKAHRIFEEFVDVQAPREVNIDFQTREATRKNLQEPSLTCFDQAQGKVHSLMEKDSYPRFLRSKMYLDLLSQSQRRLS

With `CCOC(=O)N=Nc1c(O)n(C)c2ccccc12` the EC50 was > 30 µM (inactive).
For `O=C1CCCC2=C1C(c1cccs1)n1ncnc1N2` (stereo not drawn), the EC50 was > 30 µM (inactive).
In the case of `COc1ccc(Br)cc1/C=N/Nc1cccc(C(=O)O)c1`, the EC50 is reported as > 30 µM (inactive).
In the case of `CCOC(=O)/C(C(=O)Nc1ccccc1Cl)=C1/NC(C)(C)Cc2ccccc21`, the EC50 is reported as > 30 µM (inactive).
With `CCOC(=O)C1=C(C)NC(C)=C(C(=O)OCCNC(=O)c2cccnc2)C1c1cccc([N+](=O)[O-])c1` (stereo not drawn) the EC50 was > 30 µM (inactive).
`CC(C)Sc1nc2ccc(N3C(=O)C4CCCCC4C3=O)cc2s1` (stereo not drawn) was tested, and the EC50 was > 30 µM (inactive).
In the case of `O=c1[nH]c(=S)n(Cc2ccco2)c(O)c1C=NCc1cccs1`, the EC50 is reported as > 30 µM (inactive).

In order of rising EC50:
1. NS(=O)(=O)c1ccc(N/N=C/c2ccc(O)c(O)c2O)c([N+](=O)[O-])c1  1.69 µM
2. CN(C)[C@@H]1C(=O)C(C(=O)NCN2CCCC2)=C(O)[C@@]2(O)C(=O)C3=C(O)c4c(O)cccc4[C@@](C)(O)C3CC12 (stereo partly drawn)  7.06 µM

Same assay, conditions: bead-based flow cytometry RGS8-Galphao binding; measured here: Ki for RGS8-Galphao binding

In order of rising Ki:
1. CN1CCN(C2=C(Cl)C(=O)C(c3cnc(N4CCCCC4)s3)=C(Cl)C2=O)CC1  0.11 µM
2. O=C1OCC2OC(O)C(O)C(O)C2OC(=O)c2cc(O)c(O)c(O)c2-c2c(O)c(O)c3oc(=O)c4c(c(O)c(O)c5oc(=O)c2c3c54)-c2c1cc(O)c(O)c2O (stereo not drawn)  0.5 µM
3. O=C(O)C[C@@H]1C(=O)O[C@@H]2C(COC(=O)c3cc(O)c(O)c(O)c3)O[C@@H](OC(=O)c3cc(O)c(O)c(O)c3)[C@@H](OC(=O)c3cc(O)c(O)c4c3[C@H]1[C@H](O)C(=O)O4)[C@H]2OC(=O)c1cc(O)c(O)c(O)c1 (stereo partly drawn)  0.68 µM
4. O=C1C(Cl)=C(N2CCCCC2)C(=O)C(Cl)=C1c1cnc(N2CCCCC2)s1  0.95 µM
5. O=C(OCC1O[C@@H](OC(=O)c2cc(O)c(O)c(O)c2)[C@@H](OC(=O)c2cc(O)c(O)c(O)c2)[C@@H](OC(=O)c2cc(O)c(O)c(O)c2)[C@@H]1OC(=O)c1cc(O)c(O)c(O)c1)c1cc(O)c(O)c(O)c1 (stereo partly drawn)  1.05 µM
6. CN(C)c1ncc(C2=C(Cl)C(=O)C(N3CCCC3)=C(Cl)C2=O)s1  1.11 µM
7. NS(=O)(=O)c1ccc(N/N=C/c2ccc(O)c(O)c2O)c([N+](=O)[O-])c1  1.4 µM
8. O=C(O[C@@H]1OC2COC(=O)c3cc(O)c(O)c(O)c3-c3c(cc(O)c(O)c3O)C(=O)O[C@@H]([C@H]1O)[C@@H]2O)c1cc(O)c(O)c(O)c1  1.45 µM
9. CC(NC(=O)c1sc2cc([N+](=O)[O-])ccc2c1Cl)C(C)(C)C (stereo not drawn)  1.63 µM
10. Cc1[nH]n(-c2ccccc2)c(=S)c1C=Nc1cccc([N+](=O)[O-])c1  1.65 µM
11. O=C1CCC(=O)N(O)CCCCCNC(=O)CCC(=O)N(O)CCCCCNC(=O)CCC(=O)N(O)CCCCCN1  1.7 µM
12. CC(=O)N(O)CCCCCNC(=O)CCC(=O)N(O)CCCCCNC(=O)CCC(=O)N(O)CCCCCN  1.89 µM
13. O=C(NCCCN1CCOCC1)c1sc2cc([N+](=O)[O-])ccc2c1Cl  2.16 µM
14. O=C(COc1ccccc1C(=O)N/N=C\c1ccc(O)c(O)c1)N/N=C/c1ccc(O)c(O)c1  2.49 µM
15. O=[N+]([O-])c1ccc(Sc2cccc[n+]2[O-])c2nonc12  2.54 µM
16. CCC(=O)NC1=C(Cl)C(=O)C(NC(=O)CC)=C(Cl)C1=O  2.83 µM
17. O=c1c2ccccc2sn1-c1cc(S(=O)(=O)N2CCOCC2)ccc1N1CCCC1  3.05 µM
18. CN(C)S(=O)(=O)c1cccc(-n2sc3ccccc3c2=O)c1  3.31 µM
19. COCCCNC(=O)c1ccc2c3c(onc13)-c1ccccc1C2=O  3.52 µM
20. CCN(CC)S(=O)(=O)c1cccc(C(=O)N/N=C/c2ccc(O)c(O)c2O)c1  3.77 µM
21. COc1ccc(OC)c(CCNC(=O)Cn2sc3nc(C)cc(C)c3c2=O)c1  3.85 µM
22. CC1(C)OC(=O)C(=Cc2ccc(-c3ccc(S(N)(=O)=O)cc3)o2)C(=O)O1  3.98 µM
23. O=c1c2ccccc2sn1-c1cc(S(=O)(=O)N2CCOCC2)ccc1N1CCOCC1  4.21 µM
24. Cc1[nH]n(-c2ccccc2)c(=S)c1C=NCCCN=Cc1c(C)[nH]n(-c2ccccc2)c1=S  4.25 µM
25. CCOC(=O)C1CCCN(C(=O)Cn2sc3nc(C)cc(C)c3c2=O)C1 (stereo not drawn)  4.49 µM
26. CCN1/C(=C/C=C/C=C/c2sc3ccccc3[n+]2CC)Sc2ccccc21  4.71 µM
27. COC(=O)CCC(=O)Nc1sc(C)c(C)c1C(N)=O  4.93 µM
28. O=c1c2ccccc2sn1-c1ccccc1  5.06 µM
29. Cc1cc(C)c2c(=O)n(CC(=O)Nc3ccc(Cl)cc3)sc2n1  5.27 µM
30. CCOC(=O)c1sc(NC(=O)CSc2nnc(Cc3ccccc3)o2)c(C#N)c1C  5.55 µM
31. CN(C)[C@@H]1C(=O)C(C(=O)NCN2CCCC2)=C(O)[C@@]2(O)C(=O)C3=C(O)c4c(O)cccc4[C@@](C)(O)C3CC12 (stereo partly drawn)  5.85 µM
32. COc1ccc(C2=CC(=O)C=CC2=O)cc1  6.01 µM
33. Nc1c(C(=O)NCC2CCCO2)sc2nc3c(c(-c4ccco4)c12)CC/C3=C\c1ccco1 (stereo not drawn)  6.07 µM
34. Cc1cc(C)c2c(=O)n(CC(=O)Nc3cccc(F)c3)sc2n1  6.53 µM
35. COc1ccccc1-n1c(-c2cc(-c3ccco3)[nH]n2)n[nH]c1=S  6.97 µM
36. CN=c1scc(C)n1/N=C/c1ccc(O)c(O)c1O  7.21 µM
37. CCN1/C(=C/C(C)=C/c2sc3ccccc3[n+]2CC)Sc2ccccc21  7.38 µM
38. CCc1c(C(=O)Nc2ccccc2)c(C)[nH]c(=S)c1C#N  7.87 µM
39. O=c1c2ccccc2sn1-c1ccc(S(=O)(=O)N2CCCC2)cc1  8.61 µM
40. Cc1ccccc1-n1sc2cc(F)ccc2c1=O  9.64 µM
41. Cc1ccc(-n2sc3ccccc3c2=O)cc1S(=O)(=O)N1CCCCC1  9.95 µM
42. Cc1ccc(NC(=O)Cn2sc3nc(C)cc(C)c3c2=O)c(Cl)c1  11.7 µM
43. Cc1cc(Cl)ccc1N=c1ssnc1Cl  11.9 µM
44. Cc1cccc(N2CCN(C(=O)Cn3sc4nc(C)cc(C)c4c3=O)CC2C)c1 (stereo not drawn)  12.8 µM
45. CCC(=O)NC(c1ccc(C)cc1)c1cc([N+](=O)[O-])c2cccnc2c1O (stereo not drawn)  13.7 µM
46. Nc1cccnc1Sc1ccc([N+](=O)[O-])cn1  13.7 µM
47. O=C(Cc1csc(N2CCOCC2)n1)N/N=C/c1ccc(O)c(O)c1O  13.8 µM
48. CCN=c1scc(C)n1/N=C/c1ccc(O)c(O)c1O  19.6 µM
49. CCNc1ccc2noc3c2c1C(=O)c1ccccc1-3  20.3 µM
